In the supplement of paper PMC11451515:

Tested on: NOMO1
Assay: cell viability relative to DMSO control; higher = less cytotoxic
Conditions: 48 h
In short: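 Three leukemia lines were tested: NOMO1 and SEM at 500 cells/well and P12-Ichikawa at 1000 cells/well. Each was adapted for at least four passages in each medium and seeded in 5 μl in 1536-well plates, and library compounds in DMSO were pin-dosed from 47 μM to 0.79 nM in 11 threefold steps. After 48 h at 37°C, CellTiter-Glo One luminescence was read. Viability is a percentage relative to DMSO wells on each plate, with cell-free wells as background.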

[1] = HPLM + 10% dialyzed FBS, 0.000781 µM
[2] = HPLM + 10% dialyzed FBS, 0.00234 µM
[3] = HPLM + 10% dialyzed FBS, 0.00702 µM
[4] = HPLM + 10% dialyzed FBS, 0.0211 µM
[5] = HPLM + 10% dialyzed FBS, 0.0632 µM
[6] = HPLM + 10% dialyzed FBS, 0.19 µM
[7] = HPLM + 10% dialyzed FBS, 0.569 µM
[8] = HPLM + 10% dialyzed FBS, 1.71 µM
[9] = HPLM + 10% dialyzed FBS, 5.12 µM
[10] = HPLM + 10% dialyzed FBS, 15.4 µM
[11] = HPLM + 10% dialyzed FBS, 46.1 µM
[12] = RPMI 5 mM glucose + 10% FBS, 0.000781 µM
[13] = RPMI 5 mM glucose + 10% FBS, 0.00234 µM
[14] = RPMI 5 mM glucose + 10% FBS, 0.00702 µM
[15] = RPMI 5 mM glucose + 10% FBS, 0.0211 µM
[16] = RPMI 5 mM glucose + 10% FBS, 0.0632 µM
[17] = RPMI 5 mM glucose + 10% FBS, 0.19 µM
[18] = RPMI 5 mM glucose + 10% FBS, 0.569 µM
[19] = RPMI 5 mM glucose + 10% FBS, 1.71 µM
[20] = RPMI 5 mM glucose + 10% FBS, 5.12 µM
[21] = RPMI 5 mM glucose + 10% FBS, 15.4 µM
[22] = RPMI 5 mM glucose + 10% FBS, 46.1 µM
[23] = RPMI 5 mM glucose + 10% dialyzed FBS, 0.000781 µM
[24] = RPMI 5 mM glucose + 10% dialyzed FBS, 0.00234 µM
[25] = RPMI 5 mM glucose + 10% dialyzed FBS, 0.00702 µM
[26] = RPMI 5 mM glucose + 10% dialyzed FBS, 0.0211 µM
[27] = RPMI 5 mM glucose + 10% dialyzed FBS, 0.0632 µM
[28] = RPMI 5 mM glucose + 10% dialyzed FBS, 0.19 µM
[29] = RPMI 5 mM glucose + 10% dialyzed FBS, 0.569 µM
[30] = RPMI 5 mM glucose + 10% dialyzed FBS, 1.71 µM
[31] = RPMI 5 mM glucose + 10% dialyzed FBS, 5.12 µM
[32] = RPMI 5 mM glucose + 10% dialyzed FBS, 15.4 µM
[33] = RPMI 5 mM glucose + 10% dialyzed FBS, 46.1 µM

Compound	cell viability [1]	cell viability [2]	cell viability [3]	cell viability [4]	cell viability [5]	cell viability [6]	cell viability [7]	cell viability [8]	cell viability [9]	cell viability [10]	cell viability [11]	cell viability [12]	cell viability [13]	cell viability [14]	cell viability [15]	cell viability [16]	cell viability [17]	cell viability [18]	cell viability [19]	cell viability [20]	cell viability [21]	cell viability [22]	cell viability [23]	cell viability [24]	cell viability [25]	cell viability [26]	cell viability [27]	cell viability [28]	cell viability [29]	cell viability [30]	cell viability [31]	cell viability [32]	cell viability [33]
CCCCCCCCCCCC(CC1OC(=O)C1CCCCCC)OC(=O)C(CC(C)C)NC=O (stereo not drawn)	92.9%	105%	100%	109%	110%	114%	118%	114%	109%	98.8%	13.7%	93.5%	104%	95.3%	94.9%	114%	97.8%	102%	97.2%	100%	102%	31%	92.4%	102%	107%	91.7%	107%	102%	95.1%	105%	96.4%	89.2%	37.2%
COc1cc2c(Nc3ccc(NC(=O)c4ccccc4)cc3)ncnc2cc1OCCCN1CCOCC1	122%	124%	128%	126%	137%	133%	144%	122%	103%	114%	115%	–	–	–	–	–	–	–	–	–	–	–	–	–	–	–	–	–	–	–	–	–	–
CCCCN(CCCC)CCC(O)c1cc2c(Cl)cc(Cl)cc2c2cc(C(F)(F)F)ccc12 (stereo not drawn)	115%	115%	115%	124%	119%	138%	134%	121%	131%	126%	123%	117%	111%	119%	107%	106%	126%	128%	121%	121%	121%	115%	116%	109%	121%	126%	121%	115%	135%	116%	118%	122%	116%
COc1nc(-c2ccc3c(c2)OCO3)n(-c2ccc(NC(=O)CSc3ccccc3)cc2)n1	–	–	–	–	–	–	–	–	–	–	–	105%	108%	114%	103%	113%	106%	107%	102%	116%	89.1%	21.2%	102%	108%	110%	117%	105%	106%	103%	105%	97.7%	98.7%	23.1%
C[C@]\1(CCS\C(=N1)N)C2=CC(=C(F)C=C2F)C3=CN=CN=C3	95.4%	106%	103%	95.2%	118%	112%	98.2%	91.3%	38.1%	25%	3.54%	105%	107%	101%	100%	98%	101%	100%	60.6%	20.3%	20.1%	15%	80.4%	107%	98.5%	103%	109%	106%	100%	96.2%	26.4%	19.8%	22.5%
C[C@H]([C@H](O)CCC(C)(C)O)[C@H]1CC[C@@]2(O)C/3=C/C(=O)[C@@H]4C[C@@H](O)[C@@H](O)C[C@]4(C)[C@H]3CC[C@]12C	–	–	–	–	–	–	–	–	–	–	–	112%	115%	118%	107%	106%	112%	121%	104%	119%	109%	104%	122%	127%	125%	137%	112%	121%	123%	131%	125%	131%	117%
C#CCN(C)[C@H](C)Cc1ccccc1	88.2%	89.6%	88.5%	87.2%	76.7%	79.7%	85.6%	83%	92%	79.8%	65.1%	82.2%	82.8%	82%	85.4%	77%	83.9%	79.4%	76%	82.9%	78.9%	77.5%	77.6%	86.1%	84.2%	95.6%	85%	94%	83.5%	80%	92.2%	83.6%	82.7%
COC[C@H](NC(=O)c1cnc(C)s1)C(=O)N[C@@H](COC)C(=O)N[C@@H](Cc1ccccc1)C(=O)[C@@]1(C)CO1	105%	106%	111%	107%	97.2%	83.5%	23.5%	6.64%	1.03%	0.172%	1.92%	98.6%	108%	92.9%	94.3%	93.6%	98.1%	28.1%	6.29%	1.06%	0.581%	1.29%	98.8%	98.1%	97.6%	96.7%	98.3%	88.1%	30.2%	5.68%	2.49%	0.98%	1.62%
CC(C)(C)OC(=O)CN(Cc1ccc(Cl)cc1)Cc1ccc([N+](=O)[O-])s1	109%	95.6%	107%	96.8%	101%	99.6%	91.1%	87.5%	92.7%	75.3%	40.7%	88.9%	98.6%	95.4%	87%	93.5%	105%	96.3%	92.9%	89.7%	81.3%	66.5%	107%	97.7%	95.7%	96.6%	107%	94%	103%	102%	95.5%	87%	80.1%
CSC1=CC(=CC=C1)NC2=NC3=C(C=N2)/C=C(C(=O)N3C)/C4=C(Cl)C=CC=C4Cl	96.6%	114%	118%	101%	119%	101%	108%	107%	115%	114%	108%	96.1%	124%	128%	109%	118%	101%	121%	118%	103%	116%	102%	84.7%	95.5%	104%	91.3%	120%	118%	109%	112%	111%	94%	108%
CC1(C)[C@@H](O[C@H]2O[C@H](C(=O)O)[C@@H](O)[C@H](O)[C@H]2O[C@@H]2O[C@H](C(=O)O)[C@@H](O)[C@H](O)[C@H]2O)CC[C@]2(C)[C@H]3C(=O)C=C4[C@@H]5C[C@@](C)(C(=O)O)CC[C@]5(C)CC[C@@]4(C)[C@]3(C)CC[C@@H]12	–	–	–	–	–	–	–	–	–	–	–	–	–	–	–	–	–	–	–	–	–	–	109%	123%	134%	142%	154%	145%	136%	160%	154%	140%	161%
C[C@H](NC(=O)C(=O)Nc1ccccc1C(C)(C)C)C(=O)N[C@@H](CC(=O)O)C(=O)COc1c(F)c(F)cc(F)c1F	124%	120%	133%	123%	142%	137%	123%	141%	121%	51.6%	39%	115%	117%	121%	118%	122%	129%	131%	116%	122%	89.1%	26.5%	–	–	–	–	–	–	–	–	–	–	–
COCCOC(=O)C/1=C(C)/NC/2=C(C1C3=CC=CC(=C3)O)/C(=O)CC(C2)C4=C(OC)C=CC=C4 (stereo not drawn)	96.9%	105%	93.2%	118%	116%	104%	124%	97.9%	102%	87.5%	59.3%	82.5%	89.6%	110%	118%	119%	99.7%	99.7%	99.5%	97.3%	96.9%	78.5%	89.4%	105%	99.7%	99.6%	114%	109%	112%	99.2%	109%	91.4%	85.2%
Cc1ccc(NC(=O)C2(c3ccc4c(c3)OC(F)(F)O4)CC2)nc1-c1cccc(C(=O)O)c1	107%	122%	95.4%	102%	98.8%	53.4%	19%	9.04%	7.86%	6.36%	4.68%	97.6%	93.2%	99.6%	96.9%	91.6%	43.4%	17.4%	10.2%	7.42%	6.77%	4.07%	99.8%	99.8%	92.1%	110%	102%	56.8%	27%	11.4%	8.3%	7.38%	4.48%
COC(=O)N1CCN(Cc2cccc(NC(=O)Nc3ccc(C)nc3)c2F)CC1	115%	111%	111%	104%	104%	100%	100%	101%	102%	82.4%	81.9%	98.5%	98.8%	95.2%	98.8%	95.7%	85.7%	103%	84.2%	84.1%	77.2%	77.6%	91.9%	92.4%	105%	104%	99.6%	93.5%	85.6%	84%	78.1%	83.7%	81.5%
